The results in this text go back to ChEMBL document CHEMBL1201862, “PubChem BioAssay data set” (2004).

Activity calls are given as the source filed them.

The nature of experiment [1]: HIV-1 Vif–A3G interaction blockers – biochemical, TR-FRET, GST-Vif 1-94, biotin-A3G peptide, dose response retest, primary screen (AID 1117319).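 Also: TR-FRET signal of purified GST-Vif binding a biotinylated A3G peptide; inhibitors lower the FRET signal by blocking Vif and A3G binding.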 The format is functional.
The target of experiment [2] is T1, Protein skinhead-1 (Caenorhabditis elegans, UniProt P34707).
T1 sequence (P34707 whole entry): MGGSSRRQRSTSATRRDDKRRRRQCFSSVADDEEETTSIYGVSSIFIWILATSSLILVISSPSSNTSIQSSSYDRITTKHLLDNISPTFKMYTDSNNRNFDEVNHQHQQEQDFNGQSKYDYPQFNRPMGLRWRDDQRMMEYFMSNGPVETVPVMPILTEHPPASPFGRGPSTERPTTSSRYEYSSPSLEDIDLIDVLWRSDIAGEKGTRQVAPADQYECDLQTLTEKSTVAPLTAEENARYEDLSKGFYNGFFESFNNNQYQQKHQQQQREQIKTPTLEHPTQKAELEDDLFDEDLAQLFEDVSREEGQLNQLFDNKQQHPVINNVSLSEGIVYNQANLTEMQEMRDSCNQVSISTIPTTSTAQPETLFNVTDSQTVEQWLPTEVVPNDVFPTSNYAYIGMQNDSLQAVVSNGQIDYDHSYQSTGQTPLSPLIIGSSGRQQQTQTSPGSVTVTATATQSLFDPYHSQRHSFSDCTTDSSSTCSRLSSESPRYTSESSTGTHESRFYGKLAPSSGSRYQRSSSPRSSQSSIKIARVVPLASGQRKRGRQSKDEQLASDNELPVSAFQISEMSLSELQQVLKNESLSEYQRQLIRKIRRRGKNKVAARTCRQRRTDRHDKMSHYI
The format is functional.

The target in experiment [3] is T2, Oxysterols receptor LXR-beta (Homo sapiens, UniProt P55055).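 Also: agonist activity at LXR measured by a cell-based luminescence readout across a dose range, run as a counterscreen for daf-12 agonists; HEK293 cells with Gal4-LXR fusion and GAL4-driven luciferase reporter; potency for activation of Gal4-LXR reporter so compounds are agonists.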
T2 sequence (P55055 whole entry): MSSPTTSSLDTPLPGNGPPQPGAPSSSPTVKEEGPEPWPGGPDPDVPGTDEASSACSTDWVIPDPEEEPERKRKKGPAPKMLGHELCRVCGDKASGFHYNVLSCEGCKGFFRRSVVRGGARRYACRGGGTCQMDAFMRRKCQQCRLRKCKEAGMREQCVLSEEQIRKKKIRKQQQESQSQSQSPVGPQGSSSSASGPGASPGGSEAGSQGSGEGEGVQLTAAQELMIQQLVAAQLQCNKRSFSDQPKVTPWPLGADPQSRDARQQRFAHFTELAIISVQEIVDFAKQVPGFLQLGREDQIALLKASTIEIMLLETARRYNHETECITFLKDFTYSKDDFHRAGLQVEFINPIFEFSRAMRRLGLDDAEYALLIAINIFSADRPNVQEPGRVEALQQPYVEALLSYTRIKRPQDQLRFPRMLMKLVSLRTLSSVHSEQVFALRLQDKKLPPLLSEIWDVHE
Format: functional, cell-based.

Experiment [4] deals with HEK293. In words: EBV LMP1 TES2 canonical NF-kB signalling blockers – cell-based, HEK293, luciferase, cherry-pick, dose response (AID 588343). Format: functional. Conditions: Homo sapiens.
The target in experiment [5] is Peroxisome proliferator-activated receptor gamma/Nuclear receptor coactivator 3 (Homo sapiens, UniProt P37231). Format: functional.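 Also: agonist potency for raising coactivator recruitment to the receptor.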
The target of experiment [6] is Peroxisome proliferator-activated receptor gamma/Nuclear receptor coactivator 1 (Homo sapiens, UniProt P37231). The format is functional.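 Also: agonist potency as compounds enhance coactivator SRC-1 recruitment to PPARgamma.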
The target of experiment [7] is Peroxisome proliferator-activated receptor gamma/Nuclear receptor coactivator 2 (Homo sapiens, UniProt P37231). The format is functional.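 Also: agonist potency for raising coactivator recruitment to the receptor.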
Experiment [8] can be described thus: viability loss in THP-1 monocytes – THP-1 cells, cytotoxicity control for Vif-APOBEC3G degradation inhibitor project, dose response (AID 1117359). Format: functional. Conditions: THP-1.
The target in experiment [9] is Luciferin 4-monooxygenase (Photinus pyralis, UniProt P08659). Briefly: Counter Screen for Luciferase-based Assay Positives. [Related pubchem assays: 620, 618, 411 ].
The subject of experiment [10] is HT-1080. Briefly: HT1080 cell viability loss – fluorescence readout (AID 620). Conditions: Homo sapiens. The format is functional, cell-based.
Experiment [11] relates to Vero. Briefly: cells. Format: functional. Conditions: Chlorocebus sabaeus.
Experiment [12] deals with T3, COUP transcription factor 2 (Homo sapiens, UniProt P24468).
T3 sequence (P24468 whole entry): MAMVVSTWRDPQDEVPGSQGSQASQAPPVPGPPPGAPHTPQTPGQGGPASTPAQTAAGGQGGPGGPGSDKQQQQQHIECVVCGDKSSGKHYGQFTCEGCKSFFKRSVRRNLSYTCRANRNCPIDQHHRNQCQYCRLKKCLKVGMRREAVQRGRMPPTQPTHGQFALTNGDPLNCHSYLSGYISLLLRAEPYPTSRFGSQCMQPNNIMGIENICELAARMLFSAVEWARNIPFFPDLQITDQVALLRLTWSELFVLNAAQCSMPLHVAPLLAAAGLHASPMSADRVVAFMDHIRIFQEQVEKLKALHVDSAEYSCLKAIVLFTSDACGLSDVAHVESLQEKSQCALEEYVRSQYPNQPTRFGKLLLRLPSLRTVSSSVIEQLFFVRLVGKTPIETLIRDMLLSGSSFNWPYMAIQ
Briefly: Luminescence-based cell-based high throughput dose response assay to identify inhibitors of COUP-TFII (NR2F2). Format: functional.

Experiment [13] is described as follows: OVCAR8 cell viability loss – plate reader, dry powder samples, PAX8 project, dose response (AID 743197). Format: functional, cell-based. Conditions: OVCAR-8.
Experiment [14] deals with Paired box protein Pax-8 (Homo sapiens, UniProt Q06710). In words: PAX8 transcriptional activity inhibition in RMG-I – RMG-I cells, luciferase, cherry-pick, dose response (AID 687027).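 Also: luciferase reporter driven by Pax8 target thyroperoxidase promoter measured by SteadyGlo luminescence.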 Format: functional, cell-based.
Experiment [15] addresses T4, Protein RecA (Mycobacterium tuberculosis, UniProt P9WHJ3).
T4 sequence (P9WHJ3 whole entry): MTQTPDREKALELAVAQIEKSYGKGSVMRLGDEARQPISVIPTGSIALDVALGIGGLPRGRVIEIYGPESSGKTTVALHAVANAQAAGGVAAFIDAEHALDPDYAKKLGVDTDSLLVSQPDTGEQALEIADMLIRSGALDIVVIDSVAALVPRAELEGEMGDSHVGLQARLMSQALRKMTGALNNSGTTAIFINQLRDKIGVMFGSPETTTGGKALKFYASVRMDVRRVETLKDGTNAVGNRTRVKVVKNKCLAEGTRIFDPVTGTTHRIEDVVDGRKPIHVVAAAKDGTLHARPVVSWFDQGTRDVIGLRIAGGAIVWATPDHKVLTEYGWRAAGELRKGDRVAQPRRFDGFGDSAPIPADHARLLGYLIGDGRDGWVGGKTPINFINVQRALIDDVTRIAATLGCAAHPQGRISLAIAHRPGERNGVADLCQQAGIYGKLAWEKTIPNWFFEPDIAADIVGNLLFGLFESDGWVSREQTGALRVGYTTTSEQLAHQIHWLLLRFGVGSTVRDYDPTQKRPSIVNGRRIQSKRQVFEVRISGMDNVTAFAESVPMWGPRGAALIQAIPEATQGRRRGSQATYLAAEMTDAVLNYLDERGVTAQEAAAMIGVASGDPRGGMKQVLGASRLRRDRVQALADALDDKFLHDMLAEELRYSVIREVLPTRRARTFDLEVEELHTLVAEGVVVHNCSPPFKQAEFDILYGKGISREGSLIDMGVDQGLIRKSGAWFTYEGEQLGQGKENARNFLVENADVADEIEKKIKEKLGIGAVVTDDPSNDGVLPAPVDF
In words: Fluorescence Cell-Free Homogeneous Dose Retest to Identify Inhibitors of RecA-Intein Splicing Activity. [Related pubchem assays (depositor defined):AID2097, AID2223, AID489010, AID492950]. Format: functional.

Experiment [16] addresses T5, Replicative DNA helicase DnaB (Mycobacterium tuberculosis, UniProt P9WMR3).
T5 sequence (P9WMR3 whole entry): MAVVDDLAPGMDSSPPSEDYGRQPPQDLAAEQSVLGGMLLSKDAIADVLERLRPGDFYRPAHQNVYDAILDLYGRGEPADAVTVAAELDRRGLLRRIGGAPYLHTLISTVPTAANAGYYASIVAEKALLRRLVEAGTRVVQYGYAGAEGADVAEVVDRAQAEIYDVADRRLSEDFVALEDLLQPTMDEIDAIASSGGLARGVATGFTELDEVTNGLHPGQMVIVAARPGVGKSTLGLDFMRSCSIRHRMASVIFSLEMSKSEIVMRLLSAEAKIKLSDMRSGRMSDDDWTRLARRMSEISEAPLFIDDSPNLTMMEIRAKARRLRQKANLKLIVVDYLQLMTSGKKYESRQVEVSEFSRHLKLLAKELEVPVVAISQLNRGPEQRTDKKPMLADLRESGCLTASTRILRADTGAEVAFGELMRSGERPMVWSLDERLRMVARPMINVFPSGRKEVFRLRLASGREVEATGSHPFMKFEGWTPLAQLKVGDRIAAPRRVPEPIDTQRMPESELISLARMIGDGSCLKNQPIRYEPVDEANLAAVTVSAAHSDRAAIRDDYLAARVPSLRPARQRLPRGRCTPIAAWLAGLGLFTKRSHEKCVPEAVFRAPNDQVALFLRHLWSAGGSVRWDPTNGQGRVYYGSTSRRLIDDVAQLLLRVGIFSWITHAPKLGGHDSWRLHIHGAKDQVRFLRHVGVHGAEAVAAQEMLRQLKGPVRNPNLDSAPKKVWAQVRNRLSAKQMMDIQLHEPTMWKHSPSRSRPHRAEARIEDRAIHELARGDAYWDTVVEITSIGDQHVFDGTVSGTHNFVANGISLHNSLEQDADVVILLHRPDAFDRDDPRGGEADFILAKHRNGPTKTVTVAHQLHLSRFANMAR
Briefly: DnaB intein splicing inhibitors, dose response, biochemical, cell-free fluorescence (AID 449749). The format is functional.

Experiment [17] has as its target T6, Tyrosyl-DNA phosphodiesterase 2 (Homo sapiens, UniProt O95551).
T6 sequence (O95551 whole entry): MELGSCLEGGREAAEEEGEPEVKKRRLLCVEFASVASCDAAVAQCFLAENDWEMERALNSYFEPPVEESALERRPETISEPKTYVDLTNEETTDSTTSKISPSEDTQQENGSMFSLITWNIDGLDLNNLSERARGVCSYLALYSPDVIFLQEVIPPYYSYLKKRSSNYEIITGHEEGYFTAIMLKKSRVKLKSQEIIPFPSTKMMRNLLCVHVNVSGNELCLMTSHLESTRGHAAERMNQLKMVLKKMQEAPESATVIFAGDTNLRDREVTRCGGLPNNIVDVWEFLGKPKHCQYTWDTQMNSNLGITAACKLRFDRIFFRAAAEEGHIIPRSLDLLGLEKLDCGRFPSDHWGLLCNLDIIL
Briefly: potency against TDP2 phosphodiesterase activity – biochemical, epi absorbance, IC50, dose response (AID 743297).

Experiment [18] in a line: P. falciparum Dd2 growth inhibitors, dose response, SYBR Green, cherry-picked samples (AID 1159567). The format is functional, cell-based.

Luciferin 4-monooxygenase, sequence (P08659 whole entry): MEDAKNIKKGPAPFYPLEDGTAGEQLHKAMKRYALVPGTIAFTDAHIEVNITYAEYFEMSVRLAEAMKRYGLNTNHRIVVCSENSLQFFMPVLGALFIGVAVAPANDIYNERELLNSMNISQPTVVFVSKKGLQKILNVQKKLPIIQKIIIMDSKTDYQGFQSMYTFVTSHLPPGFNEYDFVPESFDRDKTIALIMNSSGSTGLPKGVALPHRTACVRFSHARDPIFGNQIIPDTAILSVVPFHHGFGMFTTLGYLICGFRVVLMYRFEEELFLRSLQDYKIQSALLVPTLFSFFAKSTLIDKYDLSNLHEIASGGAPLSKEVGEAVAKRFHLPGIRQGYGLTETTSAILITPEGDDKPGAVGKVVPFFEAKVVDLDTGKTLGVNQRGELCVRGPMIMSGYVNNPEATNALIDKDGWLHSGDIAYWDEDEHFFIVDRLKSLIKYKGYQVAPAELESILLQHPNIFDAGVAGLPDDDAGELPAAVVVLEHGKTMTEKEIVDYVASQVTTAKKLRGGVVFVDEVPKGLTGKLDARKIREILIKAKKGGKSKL
Peroxisome proliferator-activated receptor gamma/Nuclear receptor coactivator 2, sequence (P37231 whole entry): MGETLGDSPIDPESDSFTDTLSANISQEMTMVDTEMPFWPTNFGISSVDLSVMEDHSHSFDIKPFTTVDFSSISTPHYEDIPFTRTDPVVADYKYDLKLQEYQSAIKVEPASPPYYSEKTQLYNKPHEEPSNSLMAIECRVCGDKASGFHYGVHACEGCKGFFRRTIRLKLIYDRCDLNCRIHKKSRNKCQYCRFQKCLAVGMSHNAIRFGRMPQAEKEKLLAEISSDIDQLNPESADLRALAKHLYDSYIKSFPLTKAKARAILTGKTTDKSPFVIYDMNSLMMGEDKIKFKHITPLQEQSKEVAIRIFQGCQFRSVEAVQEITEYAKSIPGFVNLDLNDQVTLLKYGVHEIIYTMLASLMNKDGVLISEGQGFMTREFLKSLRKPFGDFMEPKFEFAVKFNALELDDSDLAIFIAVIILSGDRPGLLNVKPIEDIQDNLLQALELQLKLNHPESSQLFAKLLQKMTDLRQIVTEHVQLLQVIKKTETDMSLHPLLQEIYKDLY
Peroxisome proliferator-activated receptor gamma/Nuclear receptor coactivator 2, sequence (Q15596 whole entry, further chain): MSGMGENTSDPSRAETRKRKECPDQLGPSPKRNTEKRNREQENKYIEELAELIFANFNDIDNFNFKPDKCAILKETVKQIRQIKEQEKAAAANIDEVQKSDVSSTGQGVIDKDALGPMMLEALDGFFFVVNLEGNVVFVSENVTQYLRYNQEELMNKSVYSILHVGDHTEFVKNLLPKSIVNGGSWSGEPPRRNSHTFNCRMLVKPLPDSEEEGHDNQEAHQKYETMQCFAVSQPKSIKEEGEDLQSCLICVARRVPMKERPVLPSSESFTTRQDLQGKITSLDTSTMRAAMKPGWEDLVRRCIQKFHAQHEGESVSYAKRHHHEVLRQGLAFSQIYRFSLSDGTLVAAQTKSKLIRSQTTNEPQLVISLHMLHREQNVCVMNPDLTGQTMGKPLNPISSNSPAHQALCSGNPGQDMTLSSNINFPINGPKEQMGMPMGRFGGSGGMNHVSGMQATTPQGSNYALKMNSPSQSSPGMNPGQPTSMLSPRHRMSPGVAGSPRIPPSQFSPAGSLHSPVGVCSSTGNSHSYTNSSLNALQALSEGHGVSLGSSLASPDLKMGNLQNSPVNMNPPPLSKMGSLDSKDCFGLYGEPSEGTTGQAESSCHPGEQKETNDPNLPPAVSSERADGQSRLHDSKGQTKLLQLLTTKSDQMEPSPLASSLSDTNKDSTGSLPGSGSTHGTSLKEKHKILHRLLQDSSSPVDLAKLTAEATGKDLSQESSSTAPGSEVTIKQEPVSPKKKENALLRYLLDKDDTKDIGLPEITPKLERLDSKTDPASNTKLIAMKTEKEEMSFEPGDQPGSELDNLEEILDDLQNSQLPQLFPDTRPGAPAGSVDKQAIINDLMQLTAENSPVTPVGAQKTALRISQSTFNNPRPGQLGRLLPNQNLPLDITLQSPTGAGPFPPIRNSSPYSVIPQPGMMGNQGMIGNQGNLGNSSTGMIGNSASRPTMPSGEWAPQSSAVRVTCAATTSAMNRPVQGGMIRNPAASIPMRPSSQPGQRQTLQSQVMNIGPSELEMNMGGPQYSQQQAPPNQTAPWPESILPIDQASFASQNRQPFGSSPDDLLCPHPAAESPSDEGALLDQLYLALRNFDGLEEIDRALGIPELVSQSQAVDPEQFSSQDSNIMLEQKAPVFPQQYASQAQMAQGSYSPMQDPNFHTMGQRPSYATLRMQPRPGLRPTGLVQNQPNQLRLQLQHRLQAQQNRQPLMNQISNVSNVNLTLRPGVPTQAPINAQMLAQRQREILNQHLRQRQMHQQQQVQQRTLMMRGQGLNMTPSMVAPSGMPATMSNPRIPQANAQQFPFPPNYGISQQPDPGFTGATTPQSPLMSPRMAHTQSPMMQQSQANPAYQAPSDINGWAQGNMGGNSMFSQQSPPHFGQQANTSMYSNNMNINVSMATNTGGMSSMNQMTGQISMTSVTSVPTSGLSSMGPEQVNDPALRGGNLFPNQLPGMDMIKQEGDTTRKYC
Peroxisome proliferator-activated receptor gamma/Nuclear receptor coactivator 3, sequence (P37231 whole entry): as the sequence (P37231 whole entry) above
Peroxisome proliferator-activated receptor gamma/Nuclear receptor coactivator 3, sequence (Q9Y6Q9 whole entry, further chain): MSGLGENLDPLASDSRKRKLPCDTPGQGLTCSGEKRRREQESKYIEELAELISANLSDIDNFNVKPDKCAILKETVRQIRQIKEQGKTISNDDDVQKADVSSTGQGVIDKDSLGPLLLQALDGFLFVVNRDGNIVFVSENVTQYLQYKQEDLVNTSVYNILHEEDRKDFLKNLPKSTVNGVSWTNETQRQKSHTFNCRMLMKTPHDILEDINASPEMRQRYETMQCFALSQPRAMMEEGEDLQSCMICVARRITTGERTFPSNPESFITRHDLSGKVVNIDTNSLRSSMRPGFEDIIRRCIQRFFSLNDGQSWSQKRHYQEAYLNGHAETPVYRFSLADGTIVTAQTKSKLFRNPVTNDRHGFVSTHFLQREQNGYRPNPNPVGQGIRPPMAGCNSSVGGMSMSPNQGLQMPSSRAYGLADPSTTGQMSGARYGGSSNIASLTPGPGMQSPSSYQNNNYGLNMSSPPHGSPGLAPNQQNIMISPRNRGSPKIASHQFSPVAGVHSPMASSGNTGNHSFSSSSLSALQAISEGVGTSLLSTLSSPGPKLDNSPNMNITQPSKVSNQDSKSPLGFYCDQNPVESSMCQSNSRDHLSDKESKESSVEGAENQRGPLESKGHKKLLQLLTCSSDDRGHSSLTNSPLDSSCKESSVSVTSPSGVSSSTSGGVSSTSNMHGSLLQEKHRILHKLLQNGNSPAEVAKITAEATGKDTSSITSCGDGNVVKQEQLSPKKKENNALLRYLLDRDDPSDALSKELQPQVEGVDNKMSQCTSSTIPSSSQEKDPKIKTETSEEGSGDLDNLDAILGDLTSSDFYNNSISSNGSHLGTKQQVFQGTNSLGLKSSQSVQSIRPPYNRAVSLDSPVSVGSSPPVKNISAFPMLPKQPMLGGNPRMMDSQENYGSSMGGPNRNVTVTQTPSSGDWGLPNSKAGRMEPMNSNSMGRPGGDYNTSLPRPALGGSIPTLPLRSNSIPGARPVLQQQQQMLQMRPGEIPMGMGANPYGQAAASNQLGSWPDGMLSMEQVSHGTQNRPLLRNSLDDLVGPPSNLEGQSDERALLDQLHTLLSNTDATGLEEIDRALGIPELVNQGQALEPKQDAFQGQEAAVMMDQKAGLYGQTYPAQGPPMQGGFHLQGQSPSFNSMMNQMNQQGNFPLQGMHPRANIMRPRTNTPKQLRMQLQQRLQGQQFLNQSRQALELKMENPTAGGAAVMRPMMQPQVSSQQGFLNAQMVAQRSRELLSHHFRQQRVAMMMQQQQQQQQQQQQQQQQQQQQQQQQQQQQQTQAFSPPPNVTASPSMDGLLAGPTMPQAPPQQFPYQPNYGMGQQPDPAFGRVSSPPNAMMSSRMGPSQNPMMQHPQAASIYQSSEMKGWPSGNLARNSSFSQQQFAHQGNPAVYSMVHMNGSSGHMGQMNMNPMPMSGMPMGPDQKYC
Paired box protein Pax-8, sequence (Q06710 whole entry): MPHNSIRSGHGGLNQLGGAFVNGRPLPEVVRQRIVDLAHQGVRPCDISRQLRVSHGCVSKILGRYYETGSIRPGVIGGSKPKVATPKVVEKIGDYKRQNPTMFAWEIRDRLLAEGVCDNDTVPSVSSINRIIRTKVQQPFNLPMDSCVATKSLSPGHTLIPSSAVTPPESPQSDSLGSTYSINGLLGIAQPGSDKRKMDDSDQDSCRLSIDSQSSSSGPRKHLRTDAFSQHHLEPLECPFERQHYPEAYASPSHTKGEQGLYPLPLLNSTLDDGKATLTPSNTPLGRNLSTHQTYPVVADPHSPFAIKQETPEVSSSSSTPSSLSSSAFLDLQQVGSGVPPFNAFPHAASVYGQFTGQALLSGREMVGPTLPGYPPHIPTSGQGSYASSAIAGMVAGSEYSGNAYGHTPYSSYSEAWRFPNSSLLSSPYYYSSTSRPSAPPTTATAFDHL

By IC50 is commonly meant the concentration that inhibits the measured activity by half. As to `COc1ccccc1C(=O)Nc1ccc(-c2nnc(SCC(=O)O)n2C)cc1`, the IC50 in [1] is > 100 µM (active).
The EC50 is the concentration that produces a half-maximal response. In the case of `FC(F)(F)c1cc(Cl)c2nc(-c3ccccc3)cn2c1`, the IC50 in experiment [2] was > 100 µM (inactive). Moreover, the EC50 in experiment [3] was > 67.5 µM (inactive).
Usually AC50 stands for the concentration at which the activity in the assay is half-maximal. Turning to `CCc1cc(C(=O)Nc2ncccc2O)sc1C`, in [4], the AC50 is 4.64 µM (active). Also, the EC50 in experiment [3] was > 67.5 µM (inactive).
Regarding `O=C1OCCC1Sc1nnc(-c2ccc(Br)cc2)o1` (centres undefined), the EC50 in experiment [5] is > 79.4 µM (not active); in experiment [6], > 79.4 µM (not active); in experiment [7], 75.3 µM (not active).
What is called CC50 is the concentration giving 50% cytotoxicity. For the compound `Cc1c(C=O)c2ccccc2n1Cc1ccc(F)cc1`, the CC50 in experiment [8] is > 40 µM (active).
`CC(=O)Nc1ccc2oc(-c3cc(F)c(F)cc3Cl)nc2c1`: the EC50 in [9] is 16.2 µM (active); in experiment [10], > 50 µM (not active).
Consider `O=C(c1ccccc1)c1cnc(-c2ccc(Cl)cc2)s1`, for which the figures for the EC50 in experiment [5], in experiment [6] and in experiment [7] were 21.4 µM (not active), 14.4 µM (not active) and 11.9 µM (not active), respectively.
`CCn1c(SCC(=O)Nc2ccccc2C)nnc1-c1ccccc1O`: the EC50 in experiment [9] is > 100 µM (not active); in [10] it was > 50 µM (not active).
Turning to `COc1ccc(F)cc1S(=O)(=O)Nc1cc2c3c(c1)CC(=O)N3CCC2`, the CC50 in experiment [8] was > 40 µM (active).
As to `Cc1n[nH]c(C(F)(F)F)c1N=NN1CCOCC1`, the CC50 in experiment [11] is 6.78 µM (active). Also, the IC50 in experiment [12] was 15.5 µM (inactive).
As for `CCS(=O)(=O)N1CCC(C(=O)NCc2ccccn2)CC1`, the IC50 in [1] is > 100 µM (active).
As to `CC(C)CNc1ncnc2c1ncn2[C@H]1CN(Cc2ccc(-c3ccccc3)cc2)C[C@@H](CO)O1`, the IC50 in experiment [12] is 9.84 µM (active).
Regarding `COc1ccccc1NC(=O)COC(=O)c1c(NC(C)=O)sc(C)c1C`, the CC50 in [8] is > 40 µM (active).
Consider `COc1ccc(CN(C)C[C@@H]2OCCCC[C@H](C)Oc3ccc(NC(=O)Nc4cccc5ccccc45)cc3C(=O)N([C@H](C)CO)C[C@H]2C)cc1`, for which the AC50 in experiment [13] was > 70 µM (inactive); in [14], 69.6 µM (active).
Take `COc1ccccc1/C=N\N=C(\N)c1ccccn1`: the EC50 in experiment [3] was > 67.6 µM (inactive).
As to `Oc1ccc(/N=C/c2sc3ccccc3c2Cl)cc1`, the EC50 in experiment [15] is > 380 µM (inactive). In addition, the AC50 in [16] was 137 µM (active). In addition, the IC50 in experiment [17] was > 128 µM (inactive).
Turning to `COc1ccc(C#Cc2ccc([C@H]3[C@@H](CO)N4CCCCN(C(=O)Nc5ccccc5F)C[C@@H]34)cc2)cc1`, the AC50 in [18] was 5.66 µM (active).
